Reference: US7816489B2, “Methods for making intermediates and oxytocin analogues” (Ferring B.V., priority 2002, dated 2010)

Molecular target: T1, Recombinant human oxytocin receptors (Homo sapiens, UniProt P30559)
T1 construct: expressed in transfected cells; host or cells: CHO cells
T1 sequence (P30559 1-389): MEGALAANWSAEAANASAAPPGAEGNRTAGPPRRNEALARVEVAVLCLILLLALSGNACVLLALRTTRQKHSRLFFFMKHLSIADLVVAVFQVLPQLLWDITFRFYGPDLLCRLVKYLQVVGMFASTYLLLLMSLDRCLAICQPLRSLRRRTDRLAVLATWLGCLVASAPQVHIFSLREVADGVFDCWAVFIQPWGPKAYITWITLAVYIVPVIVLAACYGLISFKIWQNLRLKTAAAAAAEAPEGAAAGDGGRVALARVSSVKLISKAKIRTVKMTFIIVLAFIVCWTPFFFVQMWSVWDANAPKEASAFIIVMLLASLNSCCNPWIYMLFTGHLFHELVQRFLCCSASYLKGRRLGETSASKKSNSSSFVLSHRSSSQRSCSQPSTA
Assay: Oxytocin receptor binding assay, [125I]-oxytocin, membrane fraction of CHO cells
Conditions: receptors expressed in CHO cells; [125I]-oxytocin displacement; read-out: inhibition constant Ki
Description: Recombinant human oxytocin receptors were expressed in CHO cells using standard molecular biological techniques. A membrane fraction was prepared and incubated in the presence of [^125I]-oxytocin and varying concentrations of equivalent heptapeptide analogue. Membranes were then isolated by filtration and counted for radioactivity to determine oxytocin binding. An inhibition constant Ki was determined for the analogue.

Ki: 0.1 nM
Compound: CC[C@@H](C)[C@@H]1NC(=O)[C@H]([C@@H](C)CC)NC(=O)[C@@H](Cc2c[nH]c3ccccc23)NC(=O)CCSCC[C@@H](C(=O)N(C)[C@H](CO)CCCN)NC(=O)[C@H](CC(N)=O)NC1=O [IV]
